# From patent US6444470B1, “Transformation-enhancing compositions and methods of use” (Pioneer Hi-Bred International, Inc., priority 1999, dated 2002)
# Like-named read-outs stand apart in the source and are kept apart here.
# Key:
# maize elite inbred P38 [1] = test: Pre-harvest ear injection, then Agrobacterium-mediated transformation, inbred P38; type: in vivo
# Protocol: (§1) Ears from greenhouse-grown or field-grown maize elite inbreds, P38 and N46, were treated with one of the following agents or combinations of agents at three days after pollination: dicamba, hormone cocktail, 2,4-D (2,4-dichlorophenoxyacetic acid), callus medium, water, ABA, Pluronic F68, proline mix, ACC, AVG, salts cocktail 4, salts cocktail 2 (Gamborg et al. (1968) Exp. Cell Res. 50:151), salts cocktail 1 (Murashige and Skoog (1962) Physiol. Plant. 15:473), salts cocktail 3 (Chu et al. (1975) Scientia Sinic. 18:659), 2,4D+salts cocktail 1, 2,4-D+salts cocktail 3, 2,4-D+dicamba and dicamba+ACC. The solutions were filter sterilized before applying to the ears at a rate of 10 mL/ear. The solutions were applied to the ears by injecting between the silks and husks at three days post pollination. Care was taken not to disrupt the ears.
# (§2) Agrobacterium-mediated transformation of maize was also employed. See, U.S. application Ser. No. 08/788,018, herein incorporated by reference.
# (§3) The ear injection was conducted as described in Example I. Other synthetic auxins were tested for their effects on the transformation of N46 and P38 maize.
# (§4) An endogenous plant growth regulator, abscisic acid (ABA), and other compounds known to influence plant growth were tested for their effects on maize transformation when applied to ears at four days after pollination using the injection method described in Example I. Additionally, the effect of the injection of water was also tested. […] ACC is a product of the reaction catalyzed by ACC synthase and a substrate of the reaction catalyzed by ACC oxidase, the ethylene-forming enzyme. AVG, on the other hand, is an inhibitor of ACC synthase.
# Several nitrogen-containing treatments were applied to ears at three days after pollination. The treatments employed are salt formulations that are commonly used in plant tissue culture media including salts cocktail 4, salts cocktail 2, salts cocktail 1 and salts cocktail 3.
# Finally, some combination treatments were examined for their effects on the transformation of N46 and P38 maize (Table 7).
# maize elite inbred P38 [2] = system: maize elite inbred P38
# Protocol: as §1
# (§5) For transformation by particle bombardment, maize ears were harvested at ten days after pollination and surface sterilized in 50% CHLOROX™ laundry bleach plus 0.5% Tween 20 surfactant for 20 minutes, and rinsed two times with sterile water. The immature embryos were excised and placed embryo axis side down (scutellum side up), 25 embryos per plate, on 604 medium, incubated at 28° C. in the dark for three days. Prior to bombardment, all embryos were transferred to plates containing 604 medium and 15% sucrose and then aligned within the 2.5-cm target zone in preparation for bombardment. Al media recipes are in the Table 10-18.
# A plasmid vector comprising the coding region of uidA operably linked to a ubiquitin promoter was made. This plasmid DNA plus plasmid DNA containing a BAR selectable marker gene operably linked to the double 35S promoter was precipitated onto 1.1 μm (average diameter) tungsten pellets using a CaCl2 precipitation procedure as follows:
# The final mixture was sonicated briefly and allowed to incubate under constant vortexing for 10 minutes. After the precipitation period, the tubes were centrifuged briefly, liquid removed, washed with […] 100% ethanol, and centrifuged for 30 seconds. Again the liquid was removed, and 60 μL 100% ethanol was added to the final tungsten particle pellet. For particle gun bombardment, the tungsten/DNA particles were briefly sonicated and 10 μL spotted onto the center of each macrocarrier and allowed to dry about two minutes before bombardment.
# (§6) The sample plates were bombarded at level #4 in a Biorad PDS-1000 Helium gun. All samples received a single shot at 650 PSI, with a total of six aliquots taken from each tube of prepared particles/DNA. Following bombardment the embryos were maintained on 604 medium +15% sucrose for three days in the dark, and then transferred to 604S medium with 3 mg/L bialaphos, maintained for three weeks on 3 mg/L bialaphos, and then transferred to 604J at 5 mg/L bialaphos. Once herbicide-resistant colonies were well established and ready for regeneration, approximately eight weeks after bombardment, the herbicide-resistant colonies were transferred to 288O regeneration medium containing 3 mg/L bialaphos, maintained in the dark or seven days, and then transferred to the light at 28° C. for shoot formation and elongation. Callus response, colony and plant recovery and GUS gene expression were monitored during the course of the experiments.
# The effects of injecting into ears three days after pollination 10 mL of a 100 μM of dicamba, an auxin analogue, on maize transformation was investigated.
# maize immature embryos = conditions: for 21 Day Callus Response / 42 Day Callus Response / Colonies to Plants / Colonies to Regeneration / Colonies with GUS Expression: 100 μM ear pre-treatment
# Protocol: as §5, §6
# Prior to bombardment, freshly excised embryos were placed onto either 560P, 601H, or 604 medium and incubated at 28° C. in the dark for three days. Prior to bombardment, all embryos were transferred to 604 with 15% sucrose. […] Colonies were transferred to regeneration medium containing 3 mg/L Bialaphos after 8-9 weeks in culture.
# maize elite inbred N46 = test: Pre-harvest ear injection, then Agrobacterium-mediated transformation, inbred N46; type: in vivo; conditions: for percent of transformed colonies relative to the no-infusion control (in words): pre-harvest ear injection
# Protocol: as §1, §2, §3, §4
# Several nitrogen-containing treatments were applied to ears at three days after pollination. The treatments employed are salt formulations that are commonly used in plant tissue culture media including salts cocktail 4, salts cocktail 2, salts cocktail 1 and salts cocktail 3. […]
# maize ears = test: Lanolin-paste application to ears, then particle bombardment transformation; type: in vivo; conditions: for 21 Day Callus Response / 42 Day Callus Response / Regenerable Colonies / Plants Transformed: 0.5% in lanolin paste on half an ear, three days after pollination; for Plants Transformed: particle bombardment; for recovery of regenerable colonies and transformed plants (in words): lanolin paste, versus lanolin controls and non-treated control
# Excerpt: Transformation-enhancing compounds were also introduced via lanolin. kLanolin paste was typically applied at a mass of 1 gram per ear. Husks were peeled back, but not removed, silks were removed, and the lanolin mixed with the compound was applied to the pericarp of the developing seed using a spatula. Ears were divided into halves longitudinally: one half would received lanolin with the compound and the other half received only lanolin.
# Al media recipes are in the Table 10-18.
# The effects of pre-harvest ear treatments of zeatin riboside and 2,4-D on maize transformation were investigated. Both agents were applied to separate ears at three days after pollination in a lanolin paste. The method employed for applying the transformation-enhancing agents of the invention to ears in lanolin paste is described in Example I. Ears were divided into halves longitudinally with one half of the ear receiving lanolin with zeatin riboside or 2,4-D and the other half receiving only lanolin. An additional ear that was not treated was used as a control.
# [3] = Table 5, ear injection three days after pollination, 10 mL/ear
# [4] = 100 μM ear injection three days after pollination, of 385 embryos
# [5] = 10 mL of 100 μM injected into ears three days after pollination, of 385 embryos
# [6] = initial culture medium 560P, 79 embryos
# [7] = initial culture medium 601H, 84 embryos
# [8] = initial culture medium 604, 128 embryos
# [9] = Table 6, ear injection four days after pollination
smiles,measurement,setting,value
COc1c(Cl)ccc(Cl)c1C(=O)O [dicamba],Number of GUS Positive Colonies,maize elite inbred P38 [1]; [3],11
same,Percent Colony Transformation,maize elite inbred P38 [1]; [3],1.10%
same,Colonies Expressing GUS,maize elite inbred P38 [2]; [4],8.6%
same,Colonies to Plants,maize elite inbred P38 [2]; [4],4.2%
same,Colonies to Regeneration,maize elite inbred P38 [2]; [4],29.1%
same,Plants Transformed,"maize elite inbred P38 [2]; 100 μM ear injection three days after pollination, particle bombardment, of 385 embryos",3.11%
same,colonies that produced escapes,"maize elite inbred P38 [2]; 100 μM pre-treatment, of the plants recovered",two
same,21 Day Callus Response,maize elite inbred P38 [2]; [5],37.9%
same,42 Day Callus Response,maize elite inbred P38 [2]; [5],40%
same,56 Day Callus Response,maize elite inbred P38 [2]; [5],32.2%
same,Type I embryogenic callus response rate versus non pre-treated control (in words),maize elite inbred P38 [2]; ears pre-treated with 100 μM,"higher early in the experiment, and was maintained over the course of the study"
same,21 Day Callus Response,maize immature embryos; [6],12.7%(10)
same,42 Day Callus Response,maize immature embryos; [6],24%(19)
same,Colonies to Plants,maize immature embryos; [6],1.3%(1)
same,Colonies to Regeneration,maize immature embryos; [6],2.5%(2)
same,Colonies with GUS Expression,maize immature embryos; [6],2.5%(2)
same,21 Day Callus Response,maize immature embryos; [7],17.9%(16)
same,42 Day Callus Response,maize immature embryos; [7],16.5%(14)
same,Colonies to Plants,maize immature embryos; [7],0%
same,Colonies to Regeneration,maize immature embryos; [7],4.8%(4)
same,Colonies with GUS Expression,maize immature embryos; [7],2.4%(2)
same,21 Day Callus Response,maize immature embryos; [8],23.4%(30)
same,42 Day Callus Response,maize immature embryos; [8],33%(42)
same,Colonies to Plants,maize immature embryos; [8],0%
same,Colonies to Regeneration,maize immature embryos; [8],11.7%(15)
same,Colonies with GUS Expression,maize immature embryos; [8],4.7%(6)
same,colonies capable of regeneration,maize immature embryos; 100 μM pre-treatment / 560P medium,one
same,Number of GUS Positive Colonies,maize elite inbred N46; [3],89
same,Percent Colony Transformation,maize elite inbred N46; [3],9.50%
same,percent of transformed colonies relative to the no-infusion control (in words),maize elite inbred N46,superior transformation results
"NC1(C(=O)O)CC1 [ACC, aminocyclopropane-1-carboxylic acid]",Number of GUS Positive Colonies,maize elite inbred P38 [1]; [9],0
same,Percent Colony Transformation,maize elite inbred P38 [1]; [9],0%
same,Number of GUS Positive Colonies,maize elite inbred N46; [9],12
same,Percent Colony Transformation,maize elite inbred N46; [9],6.80%
"C/C(=C\CNc1ncnc2c1ncn2[C@@H]1O[C@H](CO)[C@@H](O)[C@H]1O)CO [Zeatin riboside, zeatin riboside]",21 Day Callus Response,maize ears,9.4%
same,42 Day Callus Response,maize ears,9.4%
same,Regenerable Colonies,maize ears,0.6%
same,Plants Transformed,maize ears,0.6%
same,recovery of regenerable colonies and transformed plants (in words),maize ears,Regenerable colonies and transformed maize plants were recovered
"CC1=CC(=O)CC(C)(C)[C@@]1(O)/C=C/C(C)=C\C(=O)O [ABA, abscisic acid]",Number of GUS Positive Colonies,maize elite inbred P38 [1]; [9],0
same,Percent Colony Transformation,maize elite inbred P38 [1]; [9],0%
same,Number of GUS Positive Colonies,maize elite inbred N46; [9],25
same,Percent Colony Transformation,maize elite inbred N46; [9],20%
same,percent of transformed colonies relative to the no-infusion control (in words),maize elite inbred N46,largest increase in percent colony transformation above the control
"O=C(O)COc1ccc(Cl)cc1Cl [2,4-D, 2,4-dichlorophenoxyacetic acid]",Number of GUS Positive Colonies,maize elite inbred P38 [1]; [3],2
same,Percent Colony Transformation,maize elite inbred P38 [1]; [3],4.20%
same,percent of transformed colonies relative to the no-infusion control (in words),maize elite inbred P38 [1]; pre-harvest ear injection,significantly greater percentages of transformed colonies than the control
same,21 Day Callus Response,maize ears,15.4%
same,42 Day Callus Response,maize ears,12.5%
same,Regenerable Colonies,maize ears,1.5%
same,Plants Transformed,maize ears,1.5%
same,recovery of regenerable colonies and transformed plants (in words),maize ears,Regenerable colonies and transformed maize plants were recovered
same,Number of GUS Positive Colonies,maize elite inbred N46; [3],4
same,Percent Colony Transformation,maize elite inbred N46; [3],2.70%
